Source: patent US20200254065A1, “LONG-ACTING GLP-2 ANALOGS” (OPKO Biologics Ltd., priority 2019, published 2020)
Marks after values point to notes of the source that are not given here. Square brackets hold non-standard residues; d marks the D form. Ends that are not written are not given here. Peptide text beside a SMILES is read from it. Nle = CCCC[C@H](N)C(=O)O

How the values were obtained:
[1] = tested on: intestine epithelium (crypts plus villi); test: Crypts plus villi length, histopathology of small intestine; format: in vivo, SD rats; conditions: for Percent increase of Crypts plus Villi length over vehicle (FIG. 1): injected once at 2 mg/kg peptide dose, 6th day
Method: In addition to PEG30-FMS-V4 and PEG30-Fmoc-V4 that have been pharmacology evaluated by small intestinal weight evaluation (As shown in Example 5), four other reversible PEGylated variant 4 (“V4”) conjugates and two reversible linker-V4 conjugates were synthesized. All the above were injected to 6 normal SD rats/group once at 2 mg/kg (peptide dose), while on the 6th day, animals were scarified, and the small intestine was weighted followed by histopathology evaluation. […] Therefore, slices from three areas of the intestine (duodenum, jejunum and ilium) were stained with hematoxylin and eosin and at least 7 Crypts+Villi length/slice were measured. The averaged Villi+Crypt length of each treatment group (n=6) was compared to the vehicle group (negative control) and calculated as percentage increase over vehicle. […]
An additional study to evaluate the efficacy and the longevity of V4 and Cys-FMS-V4 was conducted (Study reference 15204) in which the animals were sacrificed on Days 6 (N=6), 10 (N=4) and 14 (N=4). This experiment measured the pharmacological response compared to the commercially approved SBS treatment drug Gattex. In addition, two new conjugates were tested by conjugating V4 to reduced OSu-linker and Cys-FMS-V4 purified from resin. The animals were injected with a single SC injection at Day 1 with 2 mg/kg peptide content of V4, Cys-FMS-V4, FMS-OSu-V4, Apraglutide and Glepaglutide while Gattex was SC injected daily at 2.5 mg/kg peptide content. […]

[2] = tested on: small intestine; test: Intestine weight model in rats; format: in vivo, SD rats; conditions: for Avg. small intestine weight (gr) / Small intestine weight increase over vehicle (%): normal SD rats, injected once at 2 mg/kg peptide dose, 6th day; for Small intestine weight increase over vehicle (%): MAL-FMS-V4 compared to Vehicle 2
Method: In the pharmacology study, the conjugates were injected subcutaneously twice, on days 1 and 3 at 1 mg/kg (peptide dose) and intestine weight was performed on day 6. In addition to the PEGylated conjugates, GLP-2-Gly2 was injected at the same dose and regimen for comparison. The average of the intestine weight of each group was compared to that of the vehicle group.
In a different study, several of the PEGylated teduglutide were injected as a single dose at 1 mg/kg and the intestine weight performed on day 6.
Pharmacology and pharmacokinetic studies were performed with the most promising GLP-2 variants to evaluate their efficacy and longevity, respectively. The intestine weight model in rats was conducted to evaluate efficacy, by measuring percent increase of the intestine weight of treated animals over the vehicle group. In this study, the peptides were injected twice, on days 1 and 3 at 1 mg/kg and the intestine weight was conducted on day 6.
PEG20-FMS-V6, PEG20-Fmoc-V6 and PEG40-FMS-V6 were injected once at 1 mg/kg dose on day 1, while group D was also injected twice on days 1 & 3 at 1 mg/kg. The intestine weight was performed on day 6.
Three different reversible PEGylated GLP-2 variants using mutated peptide #4 were injected at 2 mg/kg (peptide dose), once every 6 days for 12 days. On the 12th day the intestine was weighted and compared to the control group. PEG30-FMS-V4 was injected at 0.5 mg/kg as well to evaluate the efficacy dose range.
In addition to PEG30-FMS-V4 and PEG30-Fmoc-V4 that have been pharmacology evaluated by small intestinal weight evaluation (As shown in Example 5), four other reversible PEGylated variant 4 (“V4”) conjugates and two reversible linker-V4 conjugates were synthesized. All the above were injected to 6 normal SD rats/group once at 2 mg/kg (peptide dose), while on the 6th day, animals were scarified, and the small intestine was weighted followed by histopathology evaluation. […] Therefore, slices from three areas of the intestine (duodenum, jejunum and ilium) were stained with hematoxylin and eosin and at least 7 Crypts+Villi length/slice were measured. The averaged Villi+Crypt length of each treatment group (n=6) was compared to the vehicle group (negative control) and calculated as percentage increase over vehicle.
Additional studies were conducted to evaluate the efficacy of the V4 peptide and the reversible MAL-FMS-V4. The long acting effect of V4 and the conjugates were evaluated at Day 6 and Day 10 following treatment (Study reference 15203). All test groups (n=9) were injected SC with 2 mg/kg peptide content at Day 1. At Days 6 and 10, animals were sacrificed and the small intestine underwent histopathology evaluation (6 animals for Day 6, 3 animals for Day 10). FIGS. 12 and 13 show the pharmacology effect of different V4 conjugates and Apraglutide and Glepaglutide as measured by the percent increase of small intestine weight and crypts plus villi length over vehicle, respectively.
To further evaluate the pharmacology efficacy of V4 and Cys-FMS-V4, an experiment was performed to test their acute and prolonged effect on the small intestine (Study reference 15205). In addition, V4 and Cys-FMS-V4 were administrated as a single SC injection on Day 1 at 3 different doses (0.5, 2.0 or 8.0 mg/kg peptide content, 6 rats per group) to assess the dose dependence effect. The pharmacological effect on small intestine weight and villi plus crypts length was measured at Days 3, 7 and 14, and the results are presented in FIGS. 15 and 16. […] It should be noted that this acute response was higher for V4 compared to Cys-FMS-V4 at all 3 dose levels.

[3] = target: T1, GLP-2 receptor (Homo sapiens, UniProt O95838); test: GLP-2 receptor Cell Based Assay (CBA); conditions: Table 8; average of 3 independent CBA
T1 sequence (O95838 1-553): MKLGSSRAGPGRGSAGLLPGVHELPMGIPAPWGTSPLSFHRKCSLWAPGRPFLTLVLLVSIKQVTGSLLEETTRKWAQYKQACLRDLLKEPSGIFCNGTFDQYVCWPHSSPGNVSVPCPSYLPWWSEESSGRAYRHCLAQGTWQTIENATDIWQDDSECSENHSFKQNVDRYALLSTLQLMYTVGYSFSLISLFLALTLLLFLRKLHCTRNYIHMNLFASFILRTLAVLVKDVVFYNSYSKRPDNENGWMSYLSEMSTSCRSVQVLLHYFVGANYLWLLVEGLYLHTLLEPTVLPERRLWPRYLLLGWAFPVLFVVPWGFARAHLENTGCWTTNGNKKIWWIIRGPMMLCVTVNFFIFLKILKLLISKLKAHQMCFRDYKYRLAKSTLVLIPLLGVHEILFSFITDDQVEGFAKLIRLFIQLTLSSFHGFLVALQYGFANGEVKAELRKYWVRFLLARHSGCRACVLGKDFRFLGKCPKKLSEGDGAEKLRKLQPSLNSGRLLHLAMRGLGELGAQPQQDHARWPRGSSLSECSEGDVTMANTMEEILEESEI
Method: Evaluation of in vitro binding affinity of the different peptides was assessed by using Cell Based Assay (CBA) in the presence of escalating doses of the different peptides.

[4] = 2 mg/kg peptide dose once every 6 days for 12 days, weighed on 12th day

EC50 Ratio to Teduglutide [3]	EC50 Ratio to Variant 4 [3]	Compound	Percent increase of Crypts plus Villi length over vehicle (FIG. 1) [1]	Average Intestine weight (gr) [2, 4] [gr]	Increase of intestine weight over vehicle (%) [2, 4] [%]	Avg. small intestine weight (gr) [2] [gr]	Small intestine weight increase over vehicle (%) [2]	Crypts plus villi length percent increase over vehicle (FIG. 13) ([1]; Study 15203, single SC 2 mg/kg on Day 1, Days 6 and 10)
		PEG30-Fmoc-V4 (HGEGSFSDE[Nle]NTILDLLAARDFINWLIQTKITD-NH2; also: PEG30-Fmoc conjugate, place not given here)	better effect on the intestine epithelium than the V4 peptide	7.8	29	7.0	36.0** %	
		PEG30-MeOF-V4 (HGEGSFSDE[Nle]NTILDLLAARDFINWLIQTKITD-NH2; also: PEG30-MeOF conjugate, place not given here)	better effect on the intestine epithelium than the V4 peptide			7.0	39.0** %	
2.9	1.6	CCCC[C@H](NC(=O)[C@H](CCC(=O)O)NC(=O)[C@H](CC(=O)O)NC(=O)[C@H](CO)NC(=O)[C@H](Cc1ccccc1)NC(=O)[C@H](CO)NC(=O)CNC(=O)[C@H](CC(=O)O)NC(=O)CNC(=O)[C@@H](N)Cc1c[nH]cn1)C(=O)N[C@H](Cc1ccccc1)C(=O)N[C@H](C(=O)N[C@H](C(=O)N[C@@H](CC(C)C)C(=O)N[C@@H](CC(=O)O)C(=O)N[C@@H](CC(C)C)C(=O)N[C@@H](CC(C)C)C(=O)N[C@@H](C)C(=O)N[C@@H](C)C(=O)N[C@@H](CCCNC(=N)N)C(=O)N[C@@H](CC(=O)O)C(=O)N[C@@H](Cc1ccccc1)C(=O)N[C@H](C(=O)N[C@@H](CC(N)=O)C(=O)N[C@@H](Cc1c[nH]c2ccccc12)C(=O)N[C@@H](CC(C)C)C(=O)N[C@H](C(=O)N[C@@H](CCC(N)=O)C(=O)N[C@H](C(=O)N[C@@H](CCCCN)C(=O)N[C@H](C(=O)N[C@H](C(=O)N[C@@H](CC(=O)O)C(N)=O)[C@@H](C)O)[C@@H](C)CC)[C@@H](C)O)[C@@H](C)CC)[C@@H](C)CC)[C@@H](C)CC)[C@@H](C)O [Variant 1, reference compound] (H-HGDGSFSDE[Nle][dF]TILDLLAARDFINWLIQTKITD-NH2)						moderate effect that was higher than Glepaglutide and the PEG30-FMS-V4 conjugate
